For assay [1], the target named is T1, Trans-cinnamate 4-monooxygenase (Populus kitakamiensis, UniProt Q43054).
T1 sequence (Q43054 whole entry): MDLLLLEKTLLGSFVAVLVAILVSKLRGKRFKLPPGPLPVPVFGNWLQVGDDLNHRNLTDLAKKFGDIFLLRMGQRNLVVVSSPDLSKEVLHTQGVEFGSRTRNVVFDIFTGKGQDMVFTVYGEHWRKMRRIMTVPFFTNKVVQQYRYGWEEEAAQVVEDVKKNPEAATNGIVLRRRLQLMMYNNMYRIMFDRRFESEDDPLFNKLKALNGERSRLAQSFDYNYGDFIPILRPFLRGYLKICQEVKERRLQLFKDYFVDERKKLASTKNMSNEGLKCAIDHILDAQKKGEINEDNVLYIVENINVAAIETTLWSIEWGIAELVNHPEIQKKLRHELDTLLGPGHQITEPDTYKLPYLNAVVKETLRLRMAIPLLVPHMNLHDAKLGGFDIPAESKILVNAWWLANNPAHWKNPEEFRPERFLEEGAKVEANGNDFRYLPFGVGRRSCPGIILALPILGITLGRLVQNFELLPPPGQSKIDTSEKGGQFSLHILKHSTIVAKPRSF
The assay is described as follows: Inhibition of Populus sieboldii x Populus grandidentata trans-cinnamate 4-hydroxylase expressed in Saccharomyces cerevisiae BJ2168 assessed as inhibition of hydroxylation of cinnamic acid after 60 min.

For assay [2], the target named is T2, Trans-cinnamate 4-monooxygenase (Helianthus tuberosus, UniProt Q04468).
T2 sequence (Q04468 whole entry): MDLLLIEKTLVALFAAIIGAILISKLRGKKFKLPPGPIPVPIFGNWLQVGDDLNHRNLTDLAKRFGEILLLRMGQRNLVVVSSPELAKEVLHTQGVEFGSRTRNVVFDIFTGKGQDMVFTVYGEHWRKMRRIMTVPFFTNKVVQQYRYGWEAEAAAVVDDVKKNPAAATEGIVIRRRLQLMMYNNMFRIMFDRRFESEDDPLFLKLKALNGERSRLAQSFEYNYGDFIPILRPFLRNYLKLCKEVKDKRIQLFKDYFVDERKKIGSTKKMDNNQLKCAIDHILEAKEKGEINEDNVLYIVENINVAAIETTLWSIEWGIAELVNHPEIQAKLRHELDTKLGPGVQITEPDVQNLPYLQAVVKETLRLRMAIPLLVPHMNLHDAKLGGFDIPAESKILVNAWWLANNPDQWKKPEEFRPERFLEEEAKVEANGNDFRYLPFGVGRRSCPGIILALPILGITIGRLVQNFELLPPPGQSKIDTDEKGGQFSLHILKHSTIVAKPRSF
The assay is described as follows: Inhibition of Helianthus tuberosus CYP73A1.

Assay [3] addresses T3, Trans-cinnamate 4-monooxygenase (Populus kitakamiensis) (UniProt Q43054).
T3 sequence (whole entry): T1 sequence (Q43054 whole entry)
The assay is described as follows: Inhibition of Populus sieboldii x Populus grandidentata CYP73A1 at 100 uM.

Broadly, the IC50 is the concentration that gives 50% inhibition. In general, inhibition refers to how much of the control response was suppressed. The low end stands for a weak effect, the high end for a strong effect.

Each structure is given as a SMILES string.

Regarding `Sc1nnc(-c2ccc3ccccc3c2)o1`, in assay [1], the half-inhibitory concentration (IC50) was > 100 µM.

Take `Cc1cccc(-c2nnc(S)o2)c1`: the IC50 in assay [1] stood at 1.1 µM.

Consider `Sc1nnc(-c2ccco2)o1`, for which the IC50 in assay [1] was 5.9 µM.

As for `Sc1nnc(-c2cc(Cl)ccc2Cl)o1`, the half-inhibitory concentration (IC50) in assay [1] was determined as 2 µM.

In the case of `Sc1nnc(-c2ccccc2Br)o1`, the IC50 in assay [1] stood at 0.98 µM.

`Sc1nnc(-c2cccc(Cl)c2)o1`: in assay [1], the half-maximal inhibitory concentration (IC50) amounted to 0.21 µM.

On to `COc1cccc(-c2nnc(S)o2)c1`, for which the half-maximal inhibitory concentration (IC50) in assay [1] was determined as 6.1 µM.

Consider `Sc1nnc(/C=C/c2ccccc2)o1`, for which the IC50 in assay [1] was > 100 µM.

Consider `S=c1[nH]nc(C2CCCCC2)o1`, for which, in assay [1], the IC50 is > 100 µM.

For `CSc1nnc(-c2ccccc2)o1`, the IC50 in assay [1] was > 100 µM.

As to `Sc1nnc(-c2ccccn2)o1`, the concentration for half-maximal inhibition (IC50) in assay [1] is 0.58 µM.

Consider `Sc1nnc(-c2cccs2)o1`, for which the IC50 in assay [1] stood at 6.2 µM.

Take `FC(F)(F)c1cccc(-c2nnc(S)o2)c1`: in assay [1], the half-inhibitory concentration (IC50) is > 100 µM.

`O=c1[nH]nc(-c2ccccc2)o1`: the IC50 in assay [1] was determined as 6.7 µM.

As to `S=c1[nH]nc(-c2ccccc2)o1`, the IC50 in assay [1] turned out to be 0.8 µM.

Take `Sc1nnc(-c2cc(Cl)cc(Cl)c2)o1`: the concentration for half-maximal inhibition (IC50) in assay [1] was > 100 µM.

Turning to `Sc1nnc(-c2cccnc2)o1`, the half-inhibitory concentration (IC50) in assay [1] is 0.65 µM.

Take `Fc1cccc(-c2nnc(S)o2)c1`: the half-inhibitory concentration (IC50) in assay [1] was 0.13 µM.

Turning to `O=C(O)c1c(O)ccc2ccccc12`, the IC50 was 0.89 µM in assay [2] and 0.88 µM in assay [1].

`Fc1ccc(-c2nnc(S)o2)cc1`: the concentration for half-maximal inhibition (IC50) in assay [1] is 3.3 µM.

Consider `Sc1nnc(-c2ccncc2)o1`, for which the IC50 in assay [1] amounted to 15 µM.

Consider `Fc1ccccc1-c1nnc(S)o1`, for which the half-maximal inhibitory concentration (IC50) in assay [1] worked out at 0.19 µM.

Consider `Cc1ccc(-c2nnc(S)o2)cc1`, for which the 50% inhibitory concentration (IC50) in assay [1] amounted to 50 µM.

In the case of `O=C(O)c1ccc2c(c1)OCO2` [PIPERONYLIC ACID], the IC50 in assay [1] is > 100 µM. Moreover, in assay [3], the inhibition is 58%.

On to `S=c1[nH]nc(-c2ccc(Cl)cc2)o1`, for which the half-inhibitory concentration (IC50) in assay [1] amounted to 23 µM.

`Sc1nnc(-c2cccc(Br)c2)o1`: the IC50 in assay [1] was 0.42 µM.

Regarding `Cc1ccccc1-c1nnc(S)o1`, the IC50 in assay [1] stood at 0.5 µM.

Consider `c1ccc(-c2nnco2)cc1`, for which the half-maximal inhibitory concentration (IC50) in assay [1] was > 100 µM.

Take `Sc1nnc(-c2ccccc2Cl)o1`: in assay [1], the concentration for half-maximal inhibition (IC50) is 0.68 µM.

Take `S=c1[nH]nc(-c2cccc3ccccc23)o1`: the half-inhibitory concentration (IC50) in assay [1] was > 100 µM.

For the origin of these results see ChEMBL document CHEMBL3046138, “5-Aryl-1,3,4-oxadiazole-2-thiols as a New Series of trans-Cinnamate 4-Hydroxylase Inhibitors” (J Pestic Sci, 2004).
